Source: patent publication US20210308065A1, “REMOTE MODULATION OF BICONTINUOUS NANOSPHERES FOR CONTROLLED DELIVERY APPLICATIONS” (Northwestern University, priority 2020, published 2021)
One block for each molecule: values may come before it.

How the values were obtained:
[1] = Encapsulation efficiency in PEG-b-PPS BCNs; type: physicochemical; conditions: in PEG-b-PPS BCNs by FNP; hydrophilic cargo co-encapsulated with PhA
Protocol: Formation of PEG-b-PPS BCNs—BCNs were formed by flash nanoprecipitation (FNP) technique using a hand-driven CIJ mixer as described previously.^3, 14 10 mg of PEG-b-PPS polymer was dissolved in 500 μL of tetrahydrofuran (THF) and was impinged against 500 μL of Milli-Q water. After impingement the nascent BCNs were diluted in a 1.5 mL reservoir of Milli-Q water. THF was removed by vacuum desiccation overnight, resulting in a 5 mg/mL BCN formulation in water. In cases where hydrophobic cargo was loaded into BCNs, the cargo was dissolved along with the 10 mg of PEG-b-PPS polymer in the 500 μL of THF used for impingement. In cases where hydrophilic cargo was loaded into BCNs, the cargo was dissolved in the 500 μL of water used for impingement.
Loading and determination of encapsulation efficiency—The loading of hydrophilic molecules (Calcein, FITC-BSA, BODIPY-BSA) or hydrophobic molecules (Pheophorbide A or Camptothecin) in to BCNs was performed using FNP technique as stated above. Here, 500 μL of Calcien (1 mM) or fluorophore-BSA (2 mg/mL) in water was impinged against 500 μL of Pheophorbide A (0.2 mg/ml) or Camptothecin (0.6 mg/ml) in THF into an aqueous reservoir to form BCNs. After removal of THF via desiccation, BCNs were washed two times with distilled water by centrifugation (10,000×g, 10 min) to remove all the unencapsulated payloads and further resuspended in PBS or water for analysis. The amount of Pheophorbide A was determined by calculating absorbance at 666 nm. Calcein, FITC/BODIPY-BSA, and Camptothecin loading was analyzed by measuring fluorescence intensities at 470/509, 495/525, and 359/434 (excitation/emission, nm), respectively.

[2] = In vitro BCN degradation and release of payloads after irradiation; type: physicochemical; conditions: centrifugation
Protocol: In vitro BCN degradation and Release of payloads—In vitro degradation studies of PhA BCNs were performed under irradiation. Briefly, 200 μL of PhA BCNs (1 mg/ml) was transferred in to multiple wells of a 96 well black plate and then irradiated for 2.5 min at 50 mW/cm^2. The irradiated samples were immediately collected and centrifuged at 10,000×g for 10 min. After centrifugation, the supernatants and pellets were collected separately and analyzed using DLS and TEM as described above.
In vitro release of calcein, FITC-BSA, ethyl eosin and PhA from BCNs was measured after irradiation. 200 μL of PBS containing PhA BCNs co-loaded with calcein or FITC-BSA, or PhA BCNs and ethyl eosin BCNs, were transferred in to multiple wells of a 96 well black plate and then irradiated at 50 mW/cm^2 for 1.25, 2.5, 5 and 10 minutes. Post irradiation samples were centrifuged at 10,000×g for 10 min and supernatants were collected and further analyzed for amount released as described earlier. For PhA BCNs and ethyl eosin BCNs, % transmittance was measured using an M3 plate reader.

RAW 264.7 cells = assay: MTT cell viability assay; type: cell-based, murine
Protocol: Cell culture—RAW 264.7 cells (murine macrophage cell line) were acquired from American Type Culture Collection (ATCC, Rockville, Md., USA) were employed for cell culture experiments.
MTT assay—RAW 264.7 cells (2×10^5 cells/mL, 100 μL) were plated in each well of a black 96-well plate and adhered overnight. The adhered cells were treated with free PhA (DMSO: PBS, 1:3) or PhA loaded BCNs (PBS) or CT BCNs or PhA-CT BCNs and incubated for 4 h. […] Post irradiation, cells were incubated for predetermined time intervals and then added with MTT (5 mg/mL in PBS, 10 μL). After 4 h MTT incubation with cells, formazan crystal deposition in each well was dissolved in DMSO (200 μL) and the absorbance was measured at 560 nm. All the samples were analyzed in quadruplicates.
The percentage cell viability was calculated as:
% cell viability=(OD of treated sample/OD of untreated sample)*100.

DN1 T cells = assay: Vaccination with BMDC treated ex vivo with MA or MA BCN, DN1 T cell activation and proliferation; type: in vivo, hCD1Tg mice; conditions: 1 or 6 weeks after intratracheal vaccination; MA BCN vs MA pulsed BMDC
Source text: One week before the 1 and 6 week timepoints, 3e6 DN1 T cells were adoptively transferred intravenously. DLN, lung, and spleen were obtained.

[3] = cited from earlier work

Molecule: O=C(O)CN(CC(=O)O)Cc1cc2c(cc1O)Oc1cc(O)c(CN(CC(=O)O)CC(=O)O)cc1C21OC(=O)c2ccccc21 [calcein]
Encapsulation efficiency [1]: 6.7±1.9%

Molecule: CCOC(=O)c1ccccc1-c1c2cc(Br)c(=O)c(Br)c-2oc2c(Br)c([O-])c(Br)cc12.[K+] [ethyl eosin]
Release of photo-oxidizer into the supernatant after irradiation of loaded BCNs [2]: comparably ineffective

Molecule: CC[C@@]1(O)C(=O)OCc2c1cc1n(c2=O)Cc2cc3ccccc3nc2-1 [free camptothecin, camptothecin]
Cytotoxicity (MTT viability) (RAW 264.7 cells; free drug, camptothecin 0.63 μg/mL, 48 h): significantly more cytotoxic than non-irradiated CT-PhA-BCNs
Cytotoxicity (MTT viability) (RAW 264.7 cells; non-irradiated, 24 h, three camptothecin concentrations (0.63, 1.56, 3.1 μg/mL)): dose-dependent cytotoxicity at 24 h
Cytotoxicity (MTT viability) (RAW 264.7 cells; non-irradiated, 48 h, three camptothecin concentrations): high cytotoxicity regardless of concentration at 48 h

Molecule: FITC-BSA: fluorescein-tagged bovine serum albumin
Encapsulation efficiency [1]: 34±4%

Molecule: mycolic acid [MA]
Activation and proliferation of DN1 T cells after vaccination with treated BMDC (DN1 T cells): differences in activation and proliferation of DN1 T cells 6 weeks after vaccination, but not 1 week after vaccination

Encapsulation efficiency [1]: 80.7±2.2%
Molecule: pheophorbide A [PhA]
Release of photo-oxidizer into the supernatant after irradiation of loaded BCNs [2]: significantly greater amounts than the comparably ineffective ethyl eosin
Cell viability (MTT) (RAW 264.7 cells; RAW 264.7 cells, with irradiation vs non-irradiated, 12 h after irradiation): significant cell death
logP [3]: 6.93
